Test results from ChEMBL document CHEMBL1201862, “PubChem BioAssay data set” (2004).
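Each compound was tested at five concentrations against cells in 96-well plates for 48 hours. Abbreviation: GI50, concentration required for 50% inhibition of growth.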 The source made the active and inactive calls. Rule as the data show it: active = GI50 up to about 1.1 µM and inactive = higher. Where a SMILES comes first, the peptide text is derived from it. [ ]: non-standard residue; d: D form. The star is where a group is joined. ξ: configuration not given here. ξPhe(4-NO2) = NC(Cc1ccc([N+](=O)[O-])cc1)C(=O)O; Boc = CC(C)(C)OC(=O)*

Legend:
Assay in all cases: growth of human tumour cells (NCI), 48 h
786-0 = test system: 786-0
EKVX = test system: EKVX
HCT-15 = test system: HCT-15
HT-29 = test system: HT-29
Hs-578T = test system: Hs-578T
LOX IMVI = test system: LOX IMVI
MDA-MB-231 = test system: MDA-MB-231
NCI-H226 = test system: NCI-H226
NCI-H23 = test system: NCI-H23
NCI-H522 = test system: NCI-H522
OVCAR-4 = test system: OVCAR-4
OVCAR-8 = test system: OVCAR-8
RXF 393 = test system: RXF 393
SF-295 = test system: SF-295
SK-MEL-28 = test system: SK-MEL-28
SK-MEL-5 = test system: SK-MEL-5
SN12C = test system: SN12C
SNB-75 = test system: SNB-75
SR = test system: SR
UACC-257 = test system: UACC-257

Compound | GI50 (786-0) | GI50 (EKVX) | GI50 (HCT-15) [µM] | GI50 (HT-29) | GI50 (Hs-578T) | GI50 (LOX IMVI) | GI50 (MDA-MB-231) | GI50 (NCI-H226) | GI50 (NCI-H23) | GI50 (NCI-H522) | GI50 (OVCAR-4) | GI50 (OVCAR-8) | GI50 (RXF 393) | GI50 (SF-295) | GI50 (SK-MEL-28) | GI50 (SK-MEL-5) | GI50 (SN12C) | GI50 (SNB-75) | GI50 (SR) | GI50 (UACC-257)
CCN(CC)CCCNc1ccc2ncn3c4ccc(O)cc4c(=O)c1c23 | 0.643 µM (active) | 7.41 µM (inactive) | 2.71 | 0.649 µM (active) | 0.39 µM (active) | 0.392 µM (active) | 1.88 µM (inactive) | 0.214 µM (active) | 2.19 µM (inactive) | 0.851 µM (active) | 1.01 µM (active) | 0.467 µM (active) | 0.14 µM (active) | 1.63 µM (inactive) | 12.4 µM (inactive) | 3.41 µM (inactive) | 0.637 µM (active) | 0.871 µM (active) | 0.171 µM (active) | 11.5 µM (inactive)
CCCCCC(=O)Nc1[nH]nnc1C#N | > 100 µM (inactive) | > 100 µM (inactive) | > 100 | > 100 µM (inactive) | > 100 µM (inactive) | > 100 µM (inactive) | > 100 µM (inactive) | > 100 µM (inactive) | > 100 µM (inactive) | > 100 µM (inactive) | > 100 µM (inactive) | > 100 µM (inactive) | > 100 µM (inactive) | > 100 µM (inactive) | > 100 µM (inactive) | > 100 µM (inactive) | > 100 µM (inactive) | > 100 µM (inactive) | > 100 µM (inactive) | > 100 µM (inactive)
COc1ccc2nc3ccccc3c(NCCCN(C)CCCl)c2c1 | 0.104 µM (active) | 0.938 µM (active) | 0.444 | 0.0998 µM (active) | 0.188 µM (active) | 0.138 µM (active) | 0.641 µM (active) | 0.226 µM (active) | 0.135 µM (active) | 0.101 µM (active) | 0.324 µM (active) | 0.142 µM (active) | 0.284 µM (active) | 0.371 µM (active) | 0.521 µM (active) | 0.365 µM (active) | 0.16 µM (active) | 0.224 µM (active) | < 0.0128 µM (active) | 0.644 µM (active)
O=C1C[C@@H](Sc2ccccc2)C2(OCCO2)C2ON3CCCC[C@H]3[C@H]12 (stereo partly drawn) | 3.53 µM (inactive) | 10.8 µM (inactive) | 2.81 | 4.75 µM (inactive) | 10.8 µM (inactive) | 2.49 µM (inactive) | 12.6 µM (inactive) | 13.8 µM (inactive) | 9.38 µM (inactive) | 2.15 µM (inactive) | 7.73 µM (inactive) | 3.87 µM (inactive) | 4.48 µM (inactive) | 15.9 µM (inactive) | 19.4 µM (inactive) | 7.74 µM (inactive) | 3.82 µM (inactive) | 12.4 µM (inactive) | 0.927 µM (active) | 14.2 µM (inactive)
NC(=O)c1nnsc1N/N=C/c1ccc([N+](=O)[O-])cc1 | 41 µM (inactive) | > 100 µM (inactive) | > 100 | > 100 µM (inactive) | > 100 µM (inactive) | > 100 µM (inactive) | > 100 µM (inactive) | > 100 µM (inactive) | > 100 µM (inactive) | > 100 µM (inactive) | > 100 µM (inactive) | > 100 µM (inactive) | > 100 µM (inactive) | > 100 µM (inactive) | > 100 µM (inactive) | > 100 µM (inactive) | > 100 µM (inactive) | > 100 µM (inactive) | 33.9 µM (inactive) | > 100 µM (inactive)
C[C@@H]1O[C@@H]2OCC[C@@H]2C2=C1C(=O)c1ccccc1C2=O | 12.3 µM (inactive) | 19.8 µM (inactive) | 15.6 | 40 µM (inactive) | 28.1 µM (inactive) | 1.92 µM (inactive) | 33.7 µM (inactive) | 26.7 µM (inactive) | 4.88 µM (inactive) | 6.65 µM (inactive) | 4.14 µM (inactive) | 6.85 µM (inactive) | 3.46 µM (inactive) | 15.8 µM (inactive) | 13.9 µM (inactive) | 5.94 µM (inactive) | 6.35 µM (inactive) | 9.95 µM (inactive) | 4.24 µM (inactive) | 11.5 µM (inactive)
NC(CS)C(=O)NCCNc1ccc(NCCNC(=O)C(N)CS)c2c1C(=O)c1c(O)ccc(O)c1C2=O (stereo not drawn) | 0.00662 µM (active) | 0.32 µM (active) | 0.112 | 0.0897 µM (active) | 0.137 µM (active) | 0.0185 µM (active) | 0.433 µM (active) | 0.00847 µM (active) | 0.0115 µM (active) | 0.0279 µM (active) | 0.204 µM (active) | 0.0225 µM (active) | 0.191 µM (active) | 0.00782 µM (active) | 0.628 µM (active) | 0.0948 µM (active) | 0.00836 µM (active) | 0.0236 µM (active) | < 0.001 µM (active) | 0.857 µM (active)
Nc1ccc(Cc2ccc(N)c(C(=O)O)c2)cc1C(=O)O | > 100 µM (inactive) | > 100 µM (inactive) | > 100 | > 100 µM (inactive) | > 100 µM (inactive) | > 100 µM (inactive) | > 100 µM (inactive) | > 100 µM (inactive) | > 100 µM (inactive) | > 100 µM (inactive) | > 100 µM (inactive) | > 100 µM (inactive) | > 100 µM (inactive) | > 100 µM (inactive) | > 100 µM (inactive) | > 100 µM (inactive) | > 100 µM (inactive) | > 100 µM (inactive) | > 100 µM (inactive) | > 100 µM (inactive)
Cc1cc(C)c(-n2c(C)c(C)c(C#N)c2N)c(C)c1 | 41 µM (inactive) | 27.5 µM (inactive) | 27.9 | 30.5 µM (inactive) | 43.8 µM (inactive) | 19.2 µM (inactive) | 33.6 µM (inactive) | 25 µM (inactive) | 39 µM (inactive) | 21 µM (inactive) | 29 µM (inactive) | 34.6 µM (inactive) | 22.1 µM (inactive) | 36.4 µM (inactive) | 37.1 µM (inactive) | 14.9 µM (inactive) | 27.2 µM (inactive) | 31.9 µM (inactive) | 11 µM (inactive) | 18.1 µM (inactive)
C#CCCCC(=O)N(C(=O)C[S+]([O-])CC)c1ccccc1 (stereo not drawn) | > 100 µM (inactive) | > 100 µM (inactive) | > 100 | > 100 µM (inactive) | > 100 µM (inactive) | > 100 µM (inactive) | > 100 µM (inactive) | > 100 µM (inactive) | > 100 µM (inactive) | > 100 µM (inactive) | > 100 µM (inactive) | > 100 µM (inactive) | > 100 µM (inactive) | > 100 µM (inactive) | > 100 µM (inactive) | > 100 µM (inactive) | > 100 µM (inactive) | > 100 µM (inactive) | > 100 µM (inactive) | > 100 µM (inactive)
CC(C)(C)OC(=O)NC(CCCCNC(=O)OCc1ccccc1)C(=O)NCCNc1ccc(NCCNC(=O)C(CCCCNC(=O)OCc2ccccc2)NC(=O)OC(C)(C)C)c2c1C(=O)c1ccccc1C2=O (stereo not drawn) | > 56.9 µM (inactive) | > 100 µM (inactive) | > 100 | > 100 µM (inactive) | 4.68 µM (inactive) | > 90.8 µM (inactive) | 5.85 µM (inactive) | > 86.5 µM (inactive) | 27.5 µM (inactive) | 10.3 µM (inactive) | > 100 µM (inactive) | 8.36 µM (inactive) | 25.7 µM (inactive) | > 93.8 µM (inactive) | 14.7 µM (inactive) | > 100 µM (inactive) | > 100 µM (inactive) | 15.3 µM (inactive) | 24.3 µM (inactive) | > 100 µM (inactive)
CC(=O)Nc1ccc(S(=O)(=O)[N-]C2C(=O)c3ccccc3C(=O)C2[n+]2ccccc2)cc1 (stereo not drawn) | > 100 µM (inactive) | 31 µM (inactive) | 28.3 | 45.1 µM (inactive) | 23.1 µM (inactive) | 63.4 µM (inactive) | 26.6 µM (inactive) | > 100 µM (inactive) | 7.64 µM (inactive) | 19.2 µM (inactive) | 15.5 µM (inactive) | 17.6 µM (inactive) | 16 µM (inactive) | 15.4 µM (inactive) | 16.5 µM (inactive) | 3.87 µM (inactive) | 99.3 µM (inactive) | 16.1 µM (inactive) | 13.5 µM (inactive) | 16.1 µM (inactive)
c1ccc2c(NCCCCCCNc3c4ccccc4nc4ccccc34)c3ccccc3nc2c1 | 0.232 µM (active) | 0.367 µM (active) | 4.34 | 0.0287 µM (active) | 0.682 µM (active) | 0.105 µM (active) | 0.08 µM (active) | 0.587 µM (active) | 0.274 µM (active) | 0.0893 µM (active) | 0.429 µM (active) | 0.289 µM (active) | 0.191 µM (active) | 0.281 µM (active) |  | 1.4 µM (inactive) | 0.137 µM (active) | 0.713 µM (active) | 0.0288 µM (active) | 2.7 µM (inactive)
CCNC(=O)CNC(=O)C(Cc1ccc([N+](=O)[O-])cc1)NC(=O)OC(C)(C)C (stereo not drawn) (Boc-[ξPhe(4-NO2)]-Gly-NHEt) | > 100 µM (inactive) | > 100 µM (inactive) | > 100 | > 100 µM (inactive) | > 100 µM (inactive) | > 100 µM (inactive) | > 100 µM (inactive) | > 100 µM (inactive) | > 100 µM (inactive) | > 100 µM (inactive) | > 100 µM (inactive) | > 100 µM (inactive) | > 100 µM (inactive) | > 100 µM (inactive) | > 100 µM (inactive) | > 100 µM (inactive) | > 100 µM (inactive) | > 100 µM (inactive) | > 100 µM (inactive) | 
